Assay results from US9975853B2, “Tetrahydroisoquinolinone derivatives and their use in the inhibition of the HSP70 protein” (Julius-Maximilians-Universitaet Wuerzburg, priority 2014, dated 2018).

System: INA-6
Assay: Cell viability assay (annexin V-FITC/propidium iodide, flow cytometry) in INA-6 multiple myeloma cells
Assay type: cell-based, human
Experimental: The effect of pharmacological Hsp70 inhibition on cell viability was analyzed after 72 hours of treatment in both non-malignant (mononuclear cells from the peripheral blood) and malignant lymphocytes (multiple myeloma cells). The mononuclear cells were separated from the peripheral blood of healthy donors by Ficoll-Hypaque density gradient centrifugation. The human cell line INA-6 represents a well-established model for multiple myeloma. The percentage of viable and apoptotic cell fractions was assessed using an annexin V-FITC/propidium iodide (PI) staining kit (Bender MedSystems, Vienna, Austria) according to manufacturer's instructions. In brief, cells were washed in PBS, incubated for 10 min in 100 ml binding buffer (10 mM HEPES/NaOH, pH 7.4, 140 mM NaCl, 2.5 mM CaCl2) containing 2.5 ml annexin V-FITC mix and 1 mg/ml propidium iodide (PI), subsequently diluted with 100 ml binding buffer and analyzed by flow cytometry (FACSCalibur/CELLQuest; Becton Dickinson, Heidelberg, Germany). Whereas viable cells are negative for both, annexin V-FITC and PI, early apoptotic cells show a positive annexin V-FITC staining, and cells in a late apoptotic stage which lose their membrane integrity additionally incorporate DNA-binding PI. To establish kill curves, concentrations of the tested compounds were titrated, and the measured viable cell fractions were further analyzed using the Prism Calculation Software (GraphPad Software Inc., La Jolla, USA).
In FIG. 2A Western blot analyses of caspases 9 and 3, and the caspase substrate PARP (upper panel), and viability analyses (lower panel) of INA-6 MM cells upon treatment with trans-7b for 24 hours are shown. INA-6 cells were either incubated with DMSO (as a solvent control) or with 0.6 μM of trans-7b, and additionally incubated either with DMSO or the pan-caspase inhibitor Z-VAD-FMK prior to analyses by Western or viability assessment (without Z-VAD-FMK co-treatment) by Annexin V/propidum iodide double staining. For Western analyses INA-6 cell pellets were dissolved in lysis buffer (20 mM HEPES (pH 7.9), 350 mM NaCl, 1 mM MgCl2, 0.5 mM EDTA, 0.1 mM EGTA, 1% NP40, 0.5 mM dithiothreiol (DTT), 1 mM Na3VO4, 0.1 mM PMSF and 1 μg/ml aprotinin). Lysates were cleared by centrifugation, measured by quantitative protein assay (Bio-Rad, München, Germany) and subjected to SDS gel electrophoresis. Proteins were transferred onto nitrocellulose membranes (Schleicher & Schuell, Dassel, Germany), incubated with antibodies specific for caspase 9, caspase 3 or PARP (Cell Signaling Technology, Frankfurt a.Main, Germany) according to standard procedures and visualized with secondary anti-rabbit horseradish peroxidase (HRP)-conjugated antibodies using an enhanced chemoluminescence detection system (ECL, Amersham, Freiburg, Germany). […] Annexin V/propidium iodide (PI) staining was performed using a fluorescein isothiocyanate (FITC) conjugated recombinant human annexin/propidium iodide kit (BenderMedSystems, Vienna, Austria) according to the manufacturer's instructions. INA-6 cells were washed in PBS, incubated for 15 minutes in 100 ml binding buffer (10 mM HEPES/NaOH, pH 7.4, 140 mM NaCl, 2.5 mM CaCl2) containing 2.5 mL annexin V-FITC mix and 1 mg/ml PI and analyzed by flow cytometry (FACSCalibur/CELLQuest; Becton Dickinson, Heidelberg, Germany). Whereas early apoptosis is characterized by positive annexin V-FITC staining reaction, cells in a late apoptotic stage lose their membrane integrity and additionally incorporate PI. Thus, the fraction of viable cells remains negative for both annexin V-FITC and PI. […] Based on the above described experiments also viability analyses of INA-6 in comparison with non-malignant PBMCs were performed choosing a longer incubation time (72 hours) as shown in FIG. 2B or C. Raw data of three independent experiments have been calculated to establish means, standard deviation and dose-effect curves of trans-7b.

Structure (SMILES): COc1ccc(C2C(C(=O)Nc3cccc(C)n3)c3ccccc3C(=O)N2c2ccccc2)cc1 (stereo not drawn) [trans-7b, trans-3-(4-Methoxyphenyl)-N-(6-methylpyridin-2-yl)-1-oxo-2-phenyl-1,2,3,4-tetrahydroisoquinoline-4-carboxamide]
- viability of INA-6 cells in comparison with the DMSO control (100%) (0.6 μM, 24 hours, Annexin V/propidium iodide): drastically decreased
- sensitivity of INA-6 tumor cells (viability, dose-effect curves) (72 hours, three independent experiments): highly sensitive (in a low micromolar range)
- EC50 (Homo sapiens, INA-6, 72 h, INA-6 multiple myeloma cells, 72 hours of treatment, viable cell fraction, mean of at least three determinations, read-out: INA-6 EC50(±sdv)): 410 nM
